Results on 30 compounds are retold here after patent US10894807B2 (Siemens Medical Solutions USA, Inc., priority 2011, dated 2021).

“And” between values parts separate entries of the source, which are not always exact repeats. Identical values can stand only once. Where only a bound is given, the exact number is not on record here.

human PSMA, sequence (Q04609 whole entry): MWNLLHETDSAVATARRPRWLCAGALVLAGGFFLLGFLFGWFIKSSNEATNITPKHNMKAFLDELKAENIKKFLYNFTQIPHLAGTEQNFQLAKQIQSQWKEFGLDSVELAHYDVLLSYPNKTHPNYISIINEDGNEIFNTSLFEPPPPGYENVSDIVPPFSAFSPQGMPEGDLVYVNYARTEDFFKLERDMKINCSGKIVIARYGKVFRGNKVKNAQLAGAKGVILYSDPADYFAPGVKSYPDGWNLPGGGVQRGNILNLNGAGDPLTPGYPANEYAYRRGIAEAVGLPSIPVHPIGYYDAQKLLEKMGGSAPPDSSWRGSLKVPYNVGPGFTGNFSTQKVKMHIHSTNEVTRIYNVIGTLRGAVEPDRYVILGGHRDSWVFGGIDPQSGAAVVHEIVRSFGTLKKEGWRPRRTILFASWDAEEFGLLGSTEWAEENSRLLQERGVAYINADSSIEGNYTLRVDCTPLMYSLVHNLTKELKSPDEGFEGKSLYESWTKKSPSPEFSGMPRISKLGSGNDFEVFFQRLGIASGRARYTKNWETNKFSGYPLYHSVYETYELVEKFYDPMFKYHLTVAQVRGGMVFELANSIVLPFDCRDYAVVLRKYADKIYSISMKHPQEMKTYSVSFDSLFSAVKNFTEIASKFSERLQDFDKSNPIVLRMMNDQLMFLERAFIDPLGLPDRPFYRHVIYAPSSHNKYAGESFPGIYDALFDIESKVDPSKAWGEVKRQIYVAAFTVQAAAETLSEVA

One experiment addresses human PSMA (Homo sapiens (Human), UniProt Q04609). Kind of experiment: Enzymatic assay for in vitro evaluation of PSMA inhibitors (fluorescent assay of PSMA activity, NAAG substrate, OPA detection of glutamate). The format is biochemical.
Settings: not given
By Ki is commonly meant a dissociation constant, usually derived from enzyme kinetics or from competition with a known ligand. Compound `CN(C(=O)N[C@@H](CCC(=O)O)C(=O)O)[C@@H](CCCCNC(=O)c1ccc(N=[N+]=[N-])cc1)C(=O)O` [P059, (S)-2-(3-((S)-5-(4-Azidobenzamido)-1-carboxypentyl)-3-methylureido)pentanedioic Acid] came in with a Ki of 12.5 nM.

`O=C(O)CCC(NC(=O)NC(CCCCNC(=O)CC(CC(=O)NCCCCC(NC(=O)N[C@@H](CCC(=O)O)C(=O)O)C(=O)O)NC(=O)c1ccc(-n2cc(CCCF)nn2)cc1)C(=O)O)C(=O)O` (stereo in doubt) [P278, (3S,7S,23S,27S)-15-(4-(4-(3-Fluoropropyl)-1H-1,2,3-triazol-1-yl)benzamido)-5,13,17,25-tetraoxo-4,6,12,18,24,26-hexaazanonacosane-1,3,7,23,27,29-hexacarboxylic Acid] returned a Ki of 0.2 nM.

In the case of `O=C(O)CC[C@H](NC(=O)N[C@@H](CCCCNc1cc(OCC(COc2ccc([N+](=O)[O-])c(NCCCC[C@H](NC(=O)N[C@@H](CCC(=O)O)C(=O)O)C(=O)O)c2)n2cc(CCCF)nn2)ccc1[N+](=O)[O-])C(=O)O)C(=O)O` (stereo in doubt) [P266, (2S)-2-(3-((1)-1-Carboxy-5-((5-(3-(3-(((S)-5-carboxy-5-(3-((S)-1,3-dicarboxypropyl)ureido)pentyl)amino)-4-nitrophenoxy)-2-(4-(3-fluoropropyl)-1H-1,2,3-triazol-1-yl)propoxy)-2-nitrophenyl)amino)pentyl)ureido)pentanedioic Acid], the affinity corresponds to a Ki of 0.3 nM.

Regarding `O=NC1C(=O)N([C@@H](CCCCNC(=O)OCc2ccccc2)C(=O)O)C(=O)N([C@@H](CCC(=O)O)C(=O)O)C1=O` (stereo partly drawn) [P088, (2S)-2-(3-((S)-5-(Benzyloxycarbonylamino)-1-carboxypentyl)-5-nitroso-2,4,6-trioxotetrahydropyrimidin-1(2H)-yl)pentanedioic Acid], the Ki was over 407 nM.

For the compound `O=C(O)CC[C@@H](C(=O)O)N1C(=O)CC(=O)N([C@@H](CCCCNC(=O)OCc2ccccc2)C(=O)O)C1=O` [P055, (S)-2-(3-((S)-5-(Benzyloxycarbonylamino)-1-carboxypentyl)-2,4,6-trioxotetrahydropyrimidin-1(2H)-yl)pentanedioic Acid], the Ki stood at 344 nM.

With `O=C(O)C(Cn1cc(CCCF)nn1)CP(=O)(O)O` (stereo not drawn) [P189, 3-(4-(3-Fluoropropyl)-1H-1,2,3-triazol-1-yl)-2-(phosphonomethyl)propanoic Acid], the Ki was over 688 nM.

In the case of `O=C(O)CC[C@H](NC(=O)N[C@@H](Cc1ccc(NC(=O)CCC(CCC(=O)Nc2ccc(C[C@H](NC(=O)N[C@@H](CCC(=O)O)C(=O)O)C(=O)O)cc2)(CCC(=O)Nc2ccc(C[C@H](NC(=O)N[C@@H](CCC(=O)O)C(=O)O)C(=O)O)cc2)NC(=O)Cn2cc(CCCF)nn2)cc1)C(=O)O)C(=O)O` [P291, (2S,2′S)-2,2′-(((((1S,1′S)-((((4S)-4-(3-((4-((2S)-2-Carboxy-2-(3-(1,3-dicarboxypropyl)-ureido)ethyl)phenyl)amino)-3-oxopropyl)-4-(2-(4-(3-fluoropropyl)-1H-1,2,3-triazol-1-yl)acetamido)heptanedioyl)bis(azanediyl))bis(4,1-phenylene))bis(1-carboxyethane-2,1-diyl))bis(azanediyl))bis(carbonyl))bis(azanediyl))dipentanedioic Acid], the Ki came to 5 nM.

For `O=C(O)CCC(CP(=O)(O)OC[C@@H]1CCCN1C(=O)CCCc1ccc(-n2cc(CCCF)nn2)cc1)C(=O)O` (stereo partly drawn) [P207, 2-(((((S)-1-(4-(4-(4-(3-Fluoropropyl)-1H-1,2,3-triazol-1-yl)phenyl)butanoyl)pyrrolidin-2-yl)methoxy)(hydroxy)phosphoryl)methyl)pentanedioic Acid], the Ki was 18.8 nM.

For `O=C(O)CC[C@H](NC(=O)NC(CC1CCN(C(=O)CCCc2ccc(-n3cc(CCCF)nn3)cc2)CC1)C(=O)O)C(=O)O` (stereo partly drawn) [P230, (2S)-2-(3-(1-Carboxy-2-(1-(4-(4-(4-(3-fluoropropyl)-1H-1,2,3-triazol-1-yl)phenyl)butanoyl)-piperidin-4-yl)ethyl)ureido)pentanedioic Acid], the Ki stood at 13 nM.

As for `O=C(O)CC[C@@H](C(=O)O)N1C(=O)C([N+](=O)[O-])C(=O)N([C@@H](CCCCNC(=O)OCc2ccc([N+](=O)[O-])cc2)C(=O)O)C1=O` (stereo partly drawn) [P089, (2S)-2-(3-((S)-1-Carboxy-5-((((4-nitrobenzyl)oxy)carbonyl)amino)pentyl)-5-nitro-2,4,6-trioxotetrahydropyrimidin-1(2H)-yl)pentanedioic Acid], the Ki is over 407 nM.

Compound `O=C(O)CC[C@H](NC(=O)CN(O)C(=O)CCCc1ccc(-n2cc(CCCF)nn2)cc1)C(=O)O` [P090, (S)-2-(2-(4-(4-(4-(3-Fluoropropyl)-1H-1,2,3-triazol-1-yl)phenyl)-N-hydroxybutanamido)acetamido)pentanedioic Acid] yielded a Ki of 313 nM.

Still in this experiment, the particulars now being: 1.0 μM.
Regarding `O=C(O)CC[C@H](NC(=O)N[C@@H](Cc1ccc(NC(=O)CCC(CCC(=O)Nc2ccc(C[C@H](NC(=O)N[C@@H](CCC(=O)O)C(=O)O)C(=O)O)cc2)(CCC(=O)Nc2ccc(C[C@H](NC(=O)N[C@@H](CCC(=O)O)C(=O)O)C(=O)O)cc2)NC(=O)Cn2cc(CCCF)nn2)cc1)C(=O)O)C(=O)O` [P291, (2S,2′S)-2,2′-(((((1S,1′S)-((((4S)-4-(3-((4-((2S)-2-Carboxy-2-(3-(1,3-dicarboxypropyl)-ureido)ethyl)phenyl)amino)-3-oxopropyl)-4-(2-(4-(3-fluoropropyl)-1H-1,2,3-triazol-1-yl)acetamido)heptanedioyl)bis(azanediyl))bis(4,1-phenylene))bis(1-carboxyethane-2,1-diyl))bis(azanediyl))bis(carbonyl))bis(azanediyl))dipentanedioic Acid], the “PSMA Blkg % (1.0 μM)” value is 95%.

Regarding `O=C(O)CCC(CP(=O)(O)OCCC1CCN(C(=O)c2ccc(-n3cc(CCCF)nn3)cc2)CC1)C(=O)O` (stereo not drawn) [P227, 2-(((2-(1-(4-(4-(3-Fluoropropyl)-1H-1,2,3-triazol-1-yl)benzoyl)piperidin-4-yl)ethoxy)(hydroxy)phosphoryl)methyl)pentanedioic Acid], the “PSMA Blkg % (1.0 μM)” value amounted to 15%.

With `O=C(O)CC[C@H](NC(=O)N[C@@H](CCCCNC(=O)N1CCN(C(=O)c2cc(C(=O)O)cc(-n3cc(CCCF)nn3)c2)CC1)C(=O)O)C(=O)O` [P262, (S)-2-(3-((S)-1-Carboxy-5-(4-(3-carboxy-5-(4-(3-fluoropropyl)-1H-1,2,3-triazol-1-yl)benzoyl)piperazine-1-carboxamido)pentyl)ureido)pentanedioic Acid], the “PSMA Blkg % (1.0 μM)” value is given as 96%.

Turning to `O=C(O)CC[C@H](NC(=O)C[C@@H](NC(=O)c1ccc(-n2cc(CCCF)nn2)cc1)C(=O)O)C(=O)O` [P221, (S)-2-((R)-3-Carboxy-3-(4-(4-(3-fluoropropyl)-1H-1,2,3-triazol-1-yl)benzamido)propanamido)-pentanedioic Acid], the “PSMA Blkg % (1.0 μM)” value is recorded as 15%.

As to `O=C(O)CC[C@H](NC(=O)NC(CC1CCN(C(=O)CCCc2ccc(-n3cc(CCCF)nn3)cc2)CC1)C(=O)O)C(=O)O` (stereo partly drawn) [P230, (2S)-2-(3-(1-Carboxy-2-(1-(4-(4-(4-(3-fluoropropyl)-1H-1,2,3-triazol-1-yl)phenyl)butanoyl)-piperidin-4-yl)ethyl)ureido)pentanedioic Acid], the “PSMA Blkg % (1.0 μM)” value came to 95%.

Turning to `O=C(O)CC[C@H](NC(=O)[C@H](CC(=O)O)NC(=O)CCCNC(=O)c1cc(C(=O)NCCCC(=O)N[C@@H](CC(=O)O)C(=O)N[C@@H](CCC(=O)O)C(=O)O)cc([N+](=O)[O-])c1)C(=O)O` [P293, (2S,2′S)-2,2′-(((2S,2′S)-2,2′-((4,4′-((5-Nitroisophthaloyl)bis(azanediyl))bis(butanoyl))-bis(azanediyl))bis(3-carboxypropanoyl))bis(azanediyl))dipentanedioic Acid], the “PSMA Blkg % (1.0 μM)” value is 45% and 90%.

The same experiment, now with this note: 10 μM.
Regarding `O=C(O)CCC(CP(=O)(O)OC[C@@H]1CCCN1C(=O)Cc1ccccc1)C(=O)O` (stereo partly drawn) [P205, 2-((Hydroxy(((S)-1-(2-phenylacetyl)pyrrolidin-2-yl)methoxy)phosphoryl)methyl)pentanedioic Acid], the “PSMA Blkg % (10 μM)” value is recorded as 79%.

Regarding `O=C(O)CCC(CP(=O)(O)OC[C@@H]1CCCN1C(=O)CCCc1ccc(-n2cc(CCCF)nn2)cc1)C(=O)O` (stereo partly drawn) [P207, 2-(((((S)-1-(4-(4-(4-(3-Fluoropropyl)-1H-1,2,3-triazol-1-yl)phenyl)butanoyl)pyrrolidin-2-yl)methoxy)(hydroxy)phosphoryl)methyl)pentanedioic Acid], the “PSMA Blkg % (10 μM)” value is reported as 96%.

As for `O=C(O)CCC(Nc1c(NC(CCC(=O)O)C(=O)O)c(=O)c1=O)C(=O)O` (stereo not drawn) [P198, 2,2′-[(3,4-Dioxocyclobut-1-ene-1,2-diyl)bis(azanediyl)]dipentanedioic Acid], the “PSMA Blkg % (10 μM)” value came out at 14%.

Still in this experiment, the particulars now being: compound at 10 μM.
In the case of `CN(C(=O)N[C@@H](CCC(=O)O)C(=O)O)[C@@H](CCCCNC(=O)c1ccc(N=[N+]=[N-])cc1)C(=O)O` [P059, (S)-2-(3-((S)-5-(4-Azidobenzamido)-1-carboxypentyl)-3-methylureido)pentanedioic Acid], the “PSMA Blkg % (10 μM)” value stood at 99%.

On to `Cc1nc(N[C@@H](CCC(=O)O)C(=O)O)sc1C(=O)O` [P087, (S)-2-((5-Carboxy-4-methylthiazol-2-yl)amino)pentanedioic Acid], for which the “PSMA Blkg % (10 μM)” value is 3%.

Take `CN(C(=O)CCCC(=O)O)[C@@H](CCC(=O)O)C(=O)O` [P029, (S)-2-(4-Carboxy-N-methylbutanamido)pentanedioic Acid]: the “PSMA Blkg % (10 μM)” value is given as 12%.

Consider `CN(C(=O)N[C@@H](CCC(=O)O)C(=O)O)[C@@H](Cc1ccc(NC(=O)CCCCCn2cc(CCCF)nn2)cc1)C(=O)O` [P068], for which the “PSMA Blkg % (10 μM)” value is 27%.

As for `O=C(O)CCC(NC(=O)N[C@@H](CCC(=O)O)C(=O)O)C(=O)O` (stereo partly drawn) [P060], the “PSMA Blkg % (10 μM)” value stood at 96%.

On to `O=C(O)CC[C@@H](C(=O)O)N1C(=O)CC(=O)N([C@@H](CCCCNC(=O)OCc2ccccc2)C(=O)O)C1=O` [P055, (S)-2-(3-((S)-5-(Benzyloxycarbonylamino)-1-carboxypentyl)-2,4,6-trioxotetrahydropyrimidin-1(2H)-yl)pentanedioic Acid], for which the “PSMA Blkg % (10 μM)” value is listed as 94%.

In the case of `O=C(O)CC[C@H](NC(=O)N(CC(=O)O)NC(=O)Cc1ccccc1)C(=O)O` [P011, (S)-2-(1-(Carboxymethyl)-2-(2-phenylacetyl)hydrazinecarboxamido)pentanedioic Acid], the “PSMA Blkg % (10 μM)” value was found to be 0%.

For `O=C(O)CC[C@H](NC(=O)CN(O)C(=O)CCCCn1cc(CCCF)nn1)C(=O)O` [P093, (S)-2-(2-(5-(4-(3-Fluoropropyl)-1H-1,2,3-triazol-1-yl)-N-hydroxypentanamido)-acetamido)pentanedioic Acid], the “PSMA Blkg % (10 μM)” value amounted to 16%.

Turning to `O=C(O)CCC(CP(=O)(O)O)C(=O)O` (stereo not drawn) [P009], the “PSMA Blkg % (10 μM)” value stood at 100%.

On to `O=C(O)CC[C@H](NC(=O)CN(O)C(=O)CCCc1ccc(F)cc1)C(=O)O` [P154, (S)-2-(2-(4-(4-Fluorophenyl)-N-hydroxybutanamido)acetamido)pentanedioic Acid], for which the “PSMA Blkg % (10 μM)” value came to 50%.

With `CCC1(CC)C(=O)N([C@@H](CCCCN(Cc2ccc([N+](=O)[O-])cc2)Cc2ccc([N+](=O)[O-])cc2)C(=O)O)C(=O)N([C@@H](CCC(=O)O)C(=O)O)C1=O` [P104, (S)-2-(3-((S)-5-(Bis(4-nitrobenzyl)amino)-1-carboxypentyl)-5,5-diethyl-2,4,6-trioxotetrahydropyrimidin-1(2H)-yl)pentanedioic Acid], the “PSMA Blkg % (10 μM)” value is reported as 7%.

For the compound `O=C(O)CC[C@H](NC(=O)CCN(O)C(=O)CCCc1ccc(-n2cc(CCCF)nn2)cc1)C(=O)O` [P111, (S)-2-(3-(4-(4-(4-(3-Fluoropropyl)-1H-1,2,3-triazol-1-yl)phenyl)-N-hydroxybutanamido)propanamido)pentanedioic Acid], the “PSMA Blkg % (10 μM)” value came out at 9%.

For `O=C(O)CC[C@@H](C(=O)O)N1C(=O)CC(=O)N(Cc2ccccc2)C1=O` [P095, (S)-2-(3-Benzyl-2,4,6-trioxotetrahydropyrimidin-1(2H)-yl)pentanedioic Acid], the “PSMA Blkg % (10 μM)” value was 4%.

`C[C@@H](C(=O)O)N(C)C(=O)N[C@@H](CCC(=O)O)C(=O)O` [P024, (S)-2-(3-((S)-1-carboxyethyl)-3-methylureido)pentanedioic Acid]: the “PSMA Blkg % (10 μM)” value is reported as 6%.

As for `O=C(O)CC[C@H](NC(=O)CN(O)C(=O)CCCc1ccc(-n2cc(CCCF)nn2)cc1)C(=O)O` [P090, (S)-2-(2-(4-(4-(4-(3-Fluoropropyl)-1H-1,2,3-triazol-1-yl)phenyl)-N-hydroxybutanamido)acetamido)pentanedioic Acid], the “PSMA Blkg % (10 μM)” value came to 85%.

For the compound `C[C@H](NC(=O)N[C@@H](CCC(=O)O)C(=O)O)C(=O)NCCF` [P082, (S)-2-(3-((S)-1-((2-Fluoroethyl)amino)-1-oxopropan-2-yl)ureido)pentanedioic Acid], the “PSMA Blkg % (10 μM)” value amounted to 4%.
